Assay results from patent publication US8058039B2 (North American Bioproducts Corporation, priority 2008, dated 2011).
Where “and” joins values, the source holds several entries; their conditions need not be identical. Equal values may be shown once.

Legend:
Format in all cases: cell-based
[1] = tested on: bacteria encountered in ethanol production; assay: Alcohol production plant trial, fermentor drop data (corn, batch fermentation)
Method: This trial was conducted at a 50 million gallon per year (m/g/y) dry grind fuel alcohol production facility utilizing corn as a fermentation substrate. Batch yeast propagation and fermentation process were utilized. Antimicrobials were added to the fermentor during the fill cycle at approximately 30% fill. No other changes were made to the process or chemical additions that would influence the fermentation kinetics monitored during 3 sets of fermentor batches listed below. The fermentation data was accumulated at the end (drop) of the fermentation process for each of the fermentors. […] See results in Table 2. […] See results in Table 3. […] See results in Table 4.

[2] = tested on: Pediococcus test organism along with “industry normal” Lactobacillus; assay: Virginiamycin (V100) vs. Erythromycin (V200) comparative efficacy analysis, 24 well plate growth test in MRS broth; details: 33° C., read at 24 and 48 hours
Text: (§1) The antibiotics currently most often used at alcohol production plants are either Penicillin-based or Virginiamycin-based. This example compares the use of Bactenix V200, an Erythromycin-based antibiotic versus V100, a Virginiamycin-based antibiotic also available from NABC to control Pediococcus test organism along with “industry normal” Lactobacillus. The trial uses an alcohol water mixture to assure total dissolving of antibiotics. This assures that the correct concentrations of antibiotics are going into the test wells and thereby preventing under dosing during the trial. All bacteria tested were industry specific isolates that were obtained from actual mash samples from alcohol production plants. The trial was set up as follows: • 1. Dissolve 0.1 g of each of the antibiotics in 1 ml water and then add 5 ml of ethanol, vortex and bring up to 10 ml with sterile water to from a suspension. • 2. Dilute the previous suspension 1:10 with sterile water. This gives a one mg/ml concentration. • 3. Filter the suspension by running through a 0.2 μm syringe filter. • 4. Add antibiotics to MRS (DeMan, Rogosa and Sharpe) broth at the concentrations required for the test. • 5. Take two μl of a fresh 24-hour culture of the target organisms and add to the corresponding empty wells in a pre-labeled 24 well tissue culture plate. • 6. Add one ml of the appropriate antibiotic media to each well of the plate. • 7. Incubate at 33° C. for 24 hours. • 8. Read plates for bacterial growth and re-incubate the plates at 33° C. • 9. After 48 hours read and report the final results.

[3] = tested on: industry obtained Pediococcus bacteria; assay: as above; details: 33° C., read at 24 and 48 hours
Text: as §1

[4] = tested on: Saccharomyces cerevisea yeast (BioFerm XR yeast); assay: Impact of Erythromycin on the function and replication of yeast during lab scale corn mash fermentation; details: for Cell Count: number of cells in a given area
Method: A study was conducted to determine if the fermentation antimicrobial Erythromycin, interfered with cell growth and the fermentation function of Saccharomyces cerevisea yeast used in the fermentation phase of the production of fuel ethanol. […] This study looked at the ability of yeast to replicate and ferment a corn mash substrate with and without the presence of Erythromycin.
This study was set up in a series of fermentation vessels. All antibiotic concentrations were tested in triplicate. Cell counts were done on one flask for each treatment at 24 and 48 hours and final testing of the fermentation reactions by HPLC was performed at 48 hours. The experiment was set as follows:
1. Antibiotic solutions were prepared to provide a sterile 1 and 10 μg/ml solutions.
2. Antibiotic solutions tested were as follows:
A. Control (NA), no antibiotic
3. Fermentations were set up using 31% solids corn mash using saccharifying enzymes and the following procedure:
A. Yeast Conditioning: • 1. Add 2 g yeast to 10 mil sterile water for each 3 flasks to test, (10 g yeast to 50 ml water) into a sterile 250 ml flask and place in water bath set to 100° F. • 2. Incubate at 100° F. for 30 minutes with occasional mixing. • 3. Remove flasks from water bath and divide suspension between the all flasks for the trial.
B. Fermentation Procedure • 1. To prepared mash, add the following. • a. Add 0.58 g urea/liter mash and mix. • b. Add 0.2 ml GA per liter and mix. • 2. Remove sample for background HPLC testing. • 3. Add antibiotic solution to labeled sterile 250 ml flasks. • 4. Add hydrated yeast suspension to mash and mix well. • 5. Add sterile stir bar to each flask and add about 150 ml mash into each 250 ml flask for a total of 12 flasks. • Three flasks for each trial as follows: • a. First group, no antibiotic (NA) flasks 1-3 • b. […] Cover each flask with a gas trap in a sterilized stopper. • 7. Place in a 33° C. water bath with continuous mixing at 280 rpm at 75% power. • a. Turn power on to the magnetic stirrers after placing the flasks onto the platforms to move the stir bars; make sure that mixing is occurring in the flasks. • 8. Remove sample at 24 hours and perform cell count. • 9. Incubate sample for 48 hours, enough time for complete fermentation • 10. Collect samples at the following times for HPLC testing: • 0 hours (one per treatment); 24 hours; 48 hours • Perform 48 hour cell count on same flask as for 24 hour count.

[5] = Set 1 “Pre Erythromycin trial”, 0.5 ppm Virginiamycin, at drop
[6] = Set 3 “Post Erythromycin test”, 0.5 ppm Virginiamycin, at drop
[7] = Set 3 “Post Erythromycin test”, 0.5 ppm Virginiamycin, single fermentor batch at drop
[8] = 0.5 ppm Erythromycin vs 0.5 ppm Virginiamycin batches
[9] = Set 2 vs Sets 1 and 3, same amount of antibiotic
[10] = Set 2 “Erythromycin trial”, 0.5 ppm Erythromycin, at drop

## Virginiamycin
[1]; [5]
  Acetic %, 28 batch average: 0.04%
  EtOH %, 28 batch average: 15.67%
  Glucose %, 28 batch average: 0.29%
  Lactic %, 28 batch average: 0.50%
[1]; Set 1 “Pre Erythromycin trial”, 0.5 ppm Virginiamycin, single fermentor batch at drop
  Acetic %: 0.02% and 0.03% and 0.04% and 0.13% and 0.05%
[1]; [6]
  Acetic %, 8 batch average: 0.04%
  EtOH %, 8 batch average: 15.58%
  Glucose %, 8 batch average: 0.32%
  Lactic %, 8 batch average: 0.47%
[1]; [7]
  Acetic %: 0.04% and 0.03% and 0.05%
  EtOH %: 15.77% and 15.53% and 15.28% and 15.73% and 15.78% and 15.5% and 15.56% and 15.52%
  Glucose %: 0.35% and 0.29% and 0.31% and 0.33% and 0.3% and 0.32%
  Lactic %: 0.44% and 0.54% and 0.70% and 0.38% and 0.43% and 0.50% and 0.40%
[2]
  effectiveness against all organisms tested: not effective against all organisms tested
[3]
  inclusion rate up to which Pediococcus was not controlled: > 3.0 ppm

## CC[C@H]1OC(=O)[C@H](C)[C@@H](O[C@H]2C[C@@](C)(OC)[C@@H](O)[C@H](C)O2)[C@H](C)[C@@H](O[C@@H]2O[C@H](C)C[C@H](N(C)C)[C@H]2O)[C@](C)(O)C[C@@H](C)C(=O)[C@H](C)[C@@H](O)[C@]1(C)O [Erythromycin]
[4]; Erythromycin 5 ppm, 24 hr
  % Budding: 8%
  % Viable: 82%
  Cell Count: 467
[4]; Erythromycin 5 ppm, 48 hr
  % Budding: 5%
  % Viable: 63%
  Cell Count: 430
[4]; Erythromycin 10 ppm, 24 hr
  % Budding: 8%
  % Viable: 80%
  Cell Count: 434
[4]; Erythromycin 10 ppm, 48 hr
  % Budding: 5%
  % Viable: 61%
  Cell Count: 454
[4]; Erythromycin 20 ppm, 24 hr
  % Budding: 7%
  % Viable: 85%
  Cell Count: 431
[4]; Erythromycin 20 ppm, 48 hr
  % Budding: 4%
  % Viable: 62%
  Cell Count: 446
[4]; at 48 hr
  yeast growth with Erythromycin present vs without: marginal better
[4]; used up to 20 ppm
  adverse effect on the yeast: no discernable adverse effect
[1]; [8]
  decrease of lactic acid production during the erythromycin trial: 0.23%
  increase of ethanol production during the erythromycin trial: 0.17%
  production increase of ethanol per fermentor: 816 gallons of ethanol per fermentor
[1]; [9]
  final ethanol production compared to Virginiamycin fermentors: increase in final ethanol production
  glucose utilized compared to Virginiamycin fermentors: utilized the same amount of glucose
  lactic acid compared to Virginiamycin fermentors: decrease in lactic acid
[1]; [10]
  Acetic %, 27 batch average: 0.04%
  EtOH %, 27 batch average: 15.84%
  Glucose %, 27 batch average: 0.30%
  Lactic %, 27 batch average: 0.27%
[1]; Set 2 “Erythromycin trial”, 0.5 ppm Erythromycin, single fermentor batch at drop
  Acetic %: 0.03% and 0.04% and 0.05% and 0.02% and 0.06%
[2]
  concentration effective against all organisms tested: 0.5 ppm
